Calls of active or inactive are those of the source.
Experiments:
Protein RecA = biological target: T1, Protein RecA (Mycobacterium tuberculosis, UniProt P9WHJ3); assay: Fluorescence Cell-Free Homogeneous Dose Retest to Identify Inhibitors of RecA-Intein Splicing Activity. [Related pubchem assays (depositor defined):AID2097, AID2223, AID489010, AID492950]; format: functional
T1 sequence (P9WHJ3 whole entry): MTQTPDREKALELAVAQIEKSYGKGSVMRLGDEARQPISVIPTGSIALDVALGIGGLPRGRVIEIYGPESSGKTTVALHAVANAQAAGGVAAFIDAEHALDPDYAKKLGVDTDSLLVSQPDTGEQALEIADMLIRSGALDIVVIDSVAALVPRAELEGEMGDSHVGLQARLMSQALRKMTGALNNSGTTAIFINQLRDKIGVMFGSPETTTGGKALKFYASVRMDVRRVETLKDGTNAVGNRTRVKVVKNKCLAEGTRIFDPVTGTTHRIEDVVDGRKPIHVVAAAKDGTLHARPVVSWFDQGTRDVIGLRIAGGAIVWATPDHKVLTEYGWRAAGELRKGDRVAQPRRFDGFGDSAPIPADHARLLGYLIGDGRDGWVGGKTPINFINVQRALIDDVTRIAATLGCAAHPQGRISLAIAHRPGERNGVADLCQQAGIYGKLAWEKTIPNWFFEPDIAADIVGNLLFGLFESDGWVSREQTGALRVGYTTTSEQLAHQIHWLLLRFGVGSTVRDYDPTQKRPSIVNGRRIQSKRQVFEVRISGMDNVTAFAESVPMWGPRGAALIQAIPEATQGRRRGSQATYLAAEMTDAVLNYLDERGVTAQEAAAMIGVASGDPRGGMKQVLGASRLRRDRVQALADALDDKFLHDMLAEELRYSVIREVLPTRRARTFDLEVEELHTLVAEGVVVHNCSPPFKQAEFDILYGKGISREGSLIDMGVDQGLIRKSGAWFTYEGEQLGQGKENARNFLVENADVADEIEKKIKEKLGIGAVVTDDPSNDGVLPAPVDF

[1] = biological target: T2, Heat shock factor protein 1 (Mus musculus, UniProt P38532); assay: HSF1 potentiators in luciferase reporter cells, confirmation, cell-based, NIH3T3, luminescence, dose retest (AID 435004); format: functional;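 also: stress induced by proteasome inhibitor MG132 added 30 min after compound; luciferase reporter driven by HSF1 response element in NIH3T3 cells; actives raise luminescence as potentiators of the MG132 stress response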
T2 sequence (P38532 whole entry): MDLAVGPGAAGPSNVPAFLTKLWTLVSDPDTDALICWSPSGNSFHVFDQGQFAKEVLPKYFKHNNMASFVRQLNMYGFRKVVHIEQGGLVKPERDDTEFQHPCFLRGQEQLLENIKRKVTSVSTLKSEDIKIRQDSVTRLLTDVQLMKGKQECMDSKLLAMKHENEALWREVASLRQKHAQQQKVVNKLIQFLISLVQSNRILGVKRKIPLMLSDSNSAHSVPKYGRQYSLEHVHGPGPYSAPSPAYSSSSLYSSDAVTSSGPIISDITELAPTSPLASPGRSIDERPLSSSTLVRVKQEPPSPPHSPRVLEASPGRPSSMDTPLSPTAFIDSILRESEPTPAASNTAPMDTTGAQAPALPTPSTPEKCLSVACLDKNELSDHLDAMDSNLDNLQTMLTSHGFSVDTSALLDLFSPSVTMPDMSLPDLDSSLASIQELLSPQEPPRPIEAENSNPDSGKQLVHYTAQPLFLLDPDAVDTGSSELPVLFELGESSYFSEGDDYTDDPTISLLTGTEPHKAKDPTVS

[2] = Luminescence Cell-Based Dose Retest to Confirm Inhibitors of Cancer Stem Cells. [Related pubchem assays (depositor defined):AID2717, AID2721]; format: functional; settings: Homo sapiens
[3] = biological target: T3, Replicative DNA helicase DnaB (Mycobacterium tuberculosis, UniProt P9WMR3); assay: DnaB intein splicing inhibitors, dose response, biochemical, cell-free fluorescence (AID 449749); format: functional
T3 sequence (P9WMR3 whole entry): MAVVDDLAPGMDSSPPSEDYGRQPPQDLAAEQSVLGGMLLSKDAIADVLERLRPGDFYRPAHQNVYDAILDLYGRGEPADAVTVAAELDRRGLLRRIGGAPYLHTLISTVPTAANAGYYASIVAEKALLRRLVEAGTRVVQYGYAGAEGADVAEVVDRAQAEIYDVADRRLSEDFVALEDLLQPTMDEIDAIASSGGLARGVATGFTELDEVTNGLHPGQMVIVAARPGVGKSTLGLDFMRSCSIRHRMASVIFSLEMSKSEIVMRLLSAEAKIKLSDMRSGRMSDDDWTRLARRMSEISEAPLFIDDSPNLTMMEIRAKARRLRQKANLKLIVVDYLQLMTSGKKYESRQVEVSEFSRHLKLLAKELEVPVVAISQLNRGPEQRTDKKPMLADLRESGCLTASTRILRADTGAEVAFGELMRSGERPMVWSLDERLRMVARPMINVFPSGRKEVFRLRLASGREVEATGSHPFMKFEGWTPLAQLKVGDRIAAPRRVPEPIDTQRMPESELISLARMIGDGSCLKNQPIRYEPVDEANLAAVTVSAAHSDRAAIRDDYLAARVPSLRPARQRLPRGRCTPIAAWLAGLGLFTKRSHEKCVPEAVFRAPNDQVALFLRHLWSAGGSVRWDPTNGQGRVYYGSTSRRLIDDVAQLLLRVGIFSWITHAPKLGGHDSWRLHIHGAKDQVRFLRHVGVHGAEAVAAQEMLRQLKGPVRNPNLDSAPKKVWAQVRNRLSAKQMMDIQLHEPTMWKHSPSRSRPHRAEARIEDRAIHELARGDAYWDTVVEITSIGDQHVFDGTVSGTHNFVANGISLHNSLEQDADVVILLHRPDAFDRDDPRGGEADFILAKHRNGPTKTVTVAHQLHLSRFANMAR

cells [4] = format: functional, cell-based
cells [5] = format: functional, cell-based; remark: listed apart in the source
[6] = CRF-BP/CRF-R2 complex antagonists, dose response, cell-based, uHTS hits, 384-well (AID 651639); format: functional, Homo sapiens; settings: read-out: IC50_Mean
[7] = biological target: T4, Corticotropin-releasing factor receptor 2/Corticotropin-releasing factor-binding protein (Homo sapiens, UniProt P24387+Q13324); assay: Dose Response confirmation of uHTS hits for small molecule antagonists of the CRF-binding protein and CRF-R2 receptor complex.; format: functional; settings: read-out: IC50_Mean
T4 sequence (Q13324 whole entry): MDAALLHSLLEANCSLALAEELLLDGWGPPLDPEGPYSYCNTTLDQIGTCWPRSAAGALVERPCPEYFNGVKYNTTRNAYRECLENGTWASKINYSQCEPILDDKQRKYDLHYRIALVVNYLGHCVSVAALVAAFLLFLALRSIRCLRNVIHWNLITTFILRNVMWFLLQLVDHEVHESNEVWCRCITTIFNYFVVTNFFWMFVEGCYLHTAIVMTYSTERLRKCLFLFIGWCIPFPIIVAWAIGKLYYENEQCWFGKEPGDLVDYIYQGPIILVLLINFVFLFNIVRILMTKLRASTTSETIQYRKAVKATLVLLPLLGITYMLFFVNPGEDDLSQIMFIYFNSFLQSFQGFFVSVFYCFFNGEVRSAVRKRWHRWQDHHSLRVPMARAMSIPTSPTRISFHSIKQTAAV
T4 sequence (P24387 whole entry): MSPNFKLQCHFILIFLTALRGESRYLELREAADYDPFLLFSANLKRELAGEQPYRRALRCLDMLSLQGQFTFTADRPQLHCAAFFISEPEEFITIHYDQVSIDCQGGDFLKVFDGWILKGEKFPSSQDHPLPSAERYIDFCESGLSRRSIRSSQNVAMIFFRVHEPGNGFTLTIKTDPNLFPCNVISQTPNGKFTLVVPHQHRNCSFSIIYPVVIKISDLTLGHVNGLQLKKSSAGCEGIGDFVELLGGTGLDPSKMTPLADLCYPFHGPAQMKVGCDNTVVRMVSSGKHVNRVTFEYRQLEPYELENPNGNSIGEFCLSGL

[8] = biological target: T4, Corticotropin-releasing factor receptor 2/Corticotropin-releasing factor-binding protein; assay: activators of CRF receptor 2 with binding protein – uHTS hits, confirmation (AID 602473); format: functional; settings: read-out: EC50_Mean
[9] = Luminescence Cell-Based Dose Confirmation HTS to Identify Activators of 5'UTR Stem-Loop Driven Alpha-Synuclein mRNA Translation in H4 Neuroglioblastoma Cells. [Related pubchem assays: 1829 (Project Summary), 1814 (Primary HTS)]; format: functional
[10] = Luminescence Cell-Based Dose Response HTS to Identify Activators of Luciferase Translation or Activity in H4 […] Cells. [Related pubchem assays: 1829 (Project Summary), 1814 (Primary HTS)]; format: functional
H4 = assay: Luminescence Cell-Based Dose Response HTS to Identify Activators of 5'UTR Stem-Loop Driven Prion Protein mRNA Translation in H4 Neuroglioblastoma Cells. [Related pubchem assays: 1829 (Project Summary), 1814 (Primary HTS)]; format: functional; settings: Homo sapiens
Fatty acid synthase [11] = biological target: T5, Fatty acid synthase (Homo sapiens, UniProt P49327); assay: FAS thioesterase domain inhibitors, dose response, biochemical, endpoint fluorescence intensity, uHTS hits (AID 624327); format: functional;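 also: fluorescence from hydrolysis of an O-methyl fluorescein acyl ester substrate by the enzyme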
T5 sequence (P49327 whole entry, the tested form may be a part): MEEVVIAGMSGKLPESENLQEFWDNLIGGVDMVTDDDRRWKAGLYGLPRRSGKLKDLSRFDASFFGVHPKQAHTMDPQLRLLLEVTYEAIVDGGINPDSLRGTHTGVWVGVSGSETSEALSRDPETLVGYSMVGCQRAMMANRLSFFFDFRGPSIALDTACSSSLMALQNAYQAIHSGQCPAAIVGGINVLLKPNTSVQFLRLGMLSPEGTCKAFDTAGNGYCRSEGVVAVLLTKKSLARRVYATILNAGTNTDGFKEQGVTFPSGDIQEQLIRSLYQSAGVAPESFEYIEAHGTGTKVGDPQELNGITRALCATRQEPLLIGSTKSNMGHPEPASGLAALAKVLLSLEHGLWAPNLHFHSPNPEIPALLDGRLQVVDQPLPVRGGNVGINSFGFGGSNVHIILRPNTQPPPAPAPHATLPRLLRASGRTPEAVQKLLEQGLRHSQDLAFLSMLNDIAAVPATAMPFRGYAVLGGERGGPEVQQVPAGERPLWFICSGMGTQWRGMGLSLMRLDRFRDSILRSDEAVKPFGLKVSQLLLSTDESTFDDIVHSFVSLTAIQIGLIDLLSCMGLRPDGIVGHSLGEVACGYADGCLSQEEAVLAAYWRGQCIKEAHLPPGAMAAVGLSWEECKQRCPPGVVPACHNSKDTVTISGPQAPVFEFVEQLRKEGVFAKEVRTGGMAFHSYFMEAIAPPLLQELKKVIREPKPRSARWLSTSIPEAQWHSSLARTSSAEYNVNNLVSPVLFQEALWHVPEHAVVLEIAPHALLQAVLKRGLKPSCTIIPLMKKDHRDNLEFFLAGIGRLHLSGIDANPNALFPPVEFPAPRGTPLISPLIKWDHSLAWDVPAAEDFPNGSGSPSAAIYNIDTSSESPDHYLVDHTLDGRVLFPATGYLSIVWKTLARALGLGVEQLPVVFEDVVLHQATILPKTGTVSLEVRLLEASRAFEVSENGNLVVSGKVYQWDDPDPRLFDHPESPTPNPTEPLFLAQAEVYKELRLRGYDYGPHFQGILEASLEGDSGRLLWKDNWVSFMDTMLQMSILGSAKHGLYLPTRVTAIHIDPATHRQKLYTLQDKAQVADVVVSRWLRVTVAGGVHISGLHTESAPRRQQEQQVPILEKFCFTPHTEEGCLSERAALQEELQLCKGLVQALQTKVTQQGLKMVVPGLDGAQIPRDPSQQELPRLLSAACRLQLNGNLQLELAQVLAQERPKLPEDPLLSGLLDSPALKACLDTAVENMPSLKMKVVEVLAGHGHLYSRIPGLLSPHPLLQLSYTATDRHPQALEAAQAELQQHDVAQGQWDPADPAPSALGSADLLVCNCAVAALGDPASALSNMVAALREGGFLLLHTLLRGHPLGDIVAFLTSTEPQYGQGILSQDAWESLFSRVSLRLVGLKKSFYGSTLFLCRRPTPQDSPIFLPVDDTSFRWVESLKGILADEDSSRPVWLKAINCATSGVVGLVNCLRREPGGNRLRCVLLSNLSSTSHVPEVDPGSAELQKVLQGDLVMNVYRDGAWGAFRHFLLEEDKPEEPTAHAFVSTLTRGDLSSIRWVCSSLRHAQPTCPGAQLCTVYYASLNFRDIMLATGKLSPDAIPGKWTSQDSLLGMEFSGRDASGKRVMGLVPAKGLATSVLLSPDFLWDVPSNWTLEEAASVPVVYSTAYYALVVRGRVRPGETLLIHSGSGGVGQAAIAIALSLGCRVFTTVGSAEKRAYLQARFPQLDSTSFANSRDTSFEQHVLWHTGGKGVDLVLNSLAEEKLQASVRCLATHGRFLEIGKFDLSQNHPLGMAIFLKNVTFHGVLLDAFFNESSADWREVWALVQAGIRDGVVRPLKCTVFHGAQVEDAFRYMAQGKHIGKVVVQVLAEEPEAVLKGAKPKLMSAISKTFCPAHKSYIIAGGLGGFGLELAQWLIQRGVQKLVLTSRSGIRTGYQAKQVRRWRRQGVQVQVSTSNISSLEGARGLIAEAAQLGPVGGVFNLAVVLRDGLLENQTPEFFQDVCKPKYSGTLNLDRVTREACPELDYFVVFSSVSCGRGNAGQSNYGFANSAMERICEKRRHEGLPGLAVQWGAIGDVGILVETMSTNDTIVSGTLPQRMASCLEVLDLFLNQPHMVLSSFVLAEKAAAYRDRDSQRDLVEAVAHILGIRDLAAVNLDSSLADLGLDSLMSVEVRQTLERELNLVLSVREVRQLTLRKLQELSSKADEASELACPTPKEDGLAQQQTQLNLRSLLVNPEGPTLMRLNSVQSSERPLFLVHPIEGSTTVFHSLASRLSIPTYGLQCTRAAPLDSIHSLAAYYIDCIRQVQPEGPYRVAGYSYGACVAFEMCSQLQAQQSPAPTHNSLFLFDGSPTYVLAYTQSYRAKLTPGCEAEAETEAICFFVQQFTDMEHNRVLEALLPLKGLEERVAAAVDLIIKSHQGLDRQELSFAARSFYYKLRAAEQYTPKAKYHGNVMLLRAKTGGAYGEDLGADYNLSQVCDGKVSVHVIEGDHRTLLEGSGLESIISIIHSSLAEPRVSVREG

Fatty acid synthase [12] = biological target: T5, Fatty acid synthase; assay: FAS thioesterase domain inhibitors, dose response, biochemical, kinetic fluorescence intensity (AID 624326); format: functional;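 also: rate of fluorescence rise from hydrolysis of a fluorogenic O-methyl fluorescein ester substrate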
[13] = HEp-2 cell cytotoxicity, dose response, cytotoxicity control for RSV inhibitor project, HTS (AID 2410); format: functional; settings: human respiratory syncytial virus

Cc1ccc(-c2cc(NC(=O)CCl)n(-c3ccccc3)n2)cc1
EC50 (Protein RecA): 5.68 µM (active) | EC50 [1]: 9.36 µM (active) | AC50 [2]: 5.24 µM (active) | AC50 [3]: 16.2 µM (active)

CCOc1ccc(N2CC(C(=O)Nc3ccccc3C(=O)NC3CC3)CC2=O)cc1 (stereo unspecified)
EC50 (cells [4]): > 350 µM (not active) | EC50 (cells [5]): > 350 µM (not active)

CCOC(=O)C(CCCCOc1ccc([N+](=O)[O-])cc1)C(=O)OCC
IC50 [6]: > 20 µM (inactive) | IC50 [7]: 25.9 µM (active) | EC50 [8]: > 53 µM (inactive)

Cc1cccc(-n2ncc3c(NCc4ccco4)ncnc32)c1
EC50 (cells [4]): > 350 µM (not active) | EC50 [9]: 4.04 µM (active) | EC50 (cells [5]): 88.7 µM (active) | EC50 [10]: 49.1 µM (active) | EC50 (H4): 64.9 µM (active)

CC(C)Sc1nc(N)c2c3c(sc2n1)CN(C)CC3
EC50 (cells [4]): > 350 µM (not active) | EC50 (cells [5]): > 350 µM (not active)

O=[N+]([O-])c1cccc(C2NCC(c3ccccc3Cl)c3c2[nH]c2ccccc32)c1 (stereo unspecified)
AC50 [2]: 2.69 µM (active)

Cc1ccc(NC(=O)c2cc([N+](=O)[O-])ccc2N2CCOCC2)cc1C
IC50 (Fatty acid synthase [11]): 4.24 µM (active) | IC50 (Fatty acid synthase [12]): 2.81 µM (active)

COC(=O)c1cc(S(=O)(=O)NCc2ccccc2OC)cn1C
EC50 (cells [4]): > 350 µM (not active) | EC50 (cells [5]): > 350 µM (not active)

O=C(/C=C/c1cc2ccccc2o1)c1ccccc1O
AC50 [2]: 10.6 µM (active)

O=C(OCc1cccc(C(F)(F)F)c1)c1cc([N+](=O)[O-])ccc1N1CCOCC1
IC50 (Fatty acid synthase [11]): 7.84 µM (active) | IC50 (Fatty acid synthase [12]): 7.24 µM (active)

Cc1ccc(NC(=O)Cn2ncn3c(cc4ccccc43)c2=O)cc1F
IC50 [6]: 7.27 µM (active) | IC50 [7]: 9.94 µM (active) | EC50 [8]: > 53 µM (inactive)

CC1CCc2nc(NC(=O)CN3CCN(c4ccc(F)cc4)CC3)sc2C1 (stereo unspecified)
IC50 (Fatty acid synthase [11]): 2.04 µM (active) | IC50 (Fatty acid synthase [12]): 1.81 µM (active)

O=C(/C=C/c1ccc(Cl)c([N+](=O)[O-])c1)Nc1cccc(NC(=O)c2ccco2)c1
AC50 [2]: 2.56 µM (active) | CC50 [13]: 21.2 µM (active)

CCCCCCCCCCCC(=O)NC(Cc1ccc(OC)c([N+](=O)[O-])c1)C(=O)O (stereo unspecified)
IC50 [6]: > 20 µM (inactive) | IC50 [7]: 11.6 µM (active) | EC50 [8]: > 53 µM (inactive)

C=CCC[C@@H](Cc1ccc(F)cc1)C(=O)OC[C@H](Cc1c[nH]c2ccccc12)NC(=O)[C@H](CC=C)CC(=O)NCCO
IC50 (Fatty acid synthase [11]): 10.9 µM (active) | IC50 (Fatty acid synthase [12]): 6.03 µM (active)

COc1ccc2c(c1)C(=O)N1[C@H]3c4cc(Cl)ccc4OC[C@@H]3[C@H](c3ccccc3)[C@]1(C)C(=O)N2
IC50 (Fatty acid synthase [11]): 16.5 µM (active) | IC50 (Fatty acid synthase [12]): 18.8 µM (active)

COc1ccc(NC(=O)CCCCC(=O)Nc2ccc(OC)cc2OC)c(OC)c1
IC50 [6]: > 20 µM (inactive) | IC50 [7]: < 0.368 µM (active) | EC50 [8]: > 53 µM (inactive)

COc1ccc(C2N(Cc3ccccc3)CC(=O)N2/N=C(\C)c2ccccc2)cc1 (stereo unspecified)
IC50 [6]: 4.93 µM (active) | IC50 [7]: 13.8 µM (active) | EC50 [8]: > 53 µM (inactive)

C[C@@H]1CN([C@H](C)CO)C(=O)c2cc(NC(=O)Nc3ccc(F)cc3)ccc2O[C@@H](C)CCCCO[C@H]1CN(C)S(=O)(=O)c1cccs1
IC50 (Fatty acid synthase [11]): 5.17 µM (active) | IC50 (Fatty acid synthase [12]): 3.69 µM (active)

O=C(N/C(=C/C=C/c1ccccc1)C(=O)N1CCCCC1)c1ccc([N+](=O)[O-])cc1
IC50 (Fatty acid synthase [11]): 0.295 µM (active) | IC50 (Fatty acid synthase [12]): 0.258 µM (active)

COC(=O)C1=CN(Cc2ccc(OC)cc2)C=C(C(=O)OC)C1c1cccs1
IC50 [6]: > 20 µM (inactive) | IC50 [7]: 4.21 µM (active) | EC50 [8]: > 53 µM (inactive)
